Like-named read-outs stand apart in the source and are kept apart here.
Columns and labels:
[1] = test system: MCF-7 breast cancer cells; assay: MTT cytotoxicity test, MCF-7; type: cell-based, human; conditions: MCF-7, 24 h incubation, read-out: IC50, cell viability (MTT)
Experimental: (§1) MCF-7 and MDA-MB-231 human breast cancer cell lines, as well as MCF-10A normal human breast epithelial cells, were acquired from the American Type Culture Collection (ATCC, Manassas, VA, USA). The characteristics of the breast cancer cell lines used in this study are compared in Table 1. MCF-7 and MDA-MB-231 cells were cultured in Dulbecco’s modified Eagle’s medium (Gibco, San Diego, CA, USA), while MCF-10A cells were cultured in the mammary epithelial cell growth medium with the following supplements: BPE, hEGF, insulin, hydrocortisone, GA-1000 (Lonza, Basel, Switzerland). All media were complemented by 10% of fetal bovine serum (FBS) and 1% of the following antibiotics: penicillin and streptomycin (both Gibco, San Diego, CA, USA). The cells were maintained in an incubator that provides the optimal growth conditions for the cell culture: 5% CO2, 37 °C, and humidity in a range of 90–95%. The cells were cultured in 100 mm plates (Sarstedt, Newton, NC, USA). Subsequently, after obtaining a subconfluent cell culture, the cells were detached with 0.05% trypsin with 0.02% EDTA (Gibco, San Diego, CA, USA). […] In this study, cells that obtained 80% confluence were used. The MTT assay was used to determine the cytotoxic effects of the compounds in the study on MCF-7 and MDA-MB-231 breast cancer cells as well as MCF-10A normal human breast epithelial cells based on Carmichael’s method. […] After this time, the medium was removed, and the cell monolayer was washed with warm phosphate-buffered saline (PBS) without calcium and magnesium. In the next step, PBS and MTT solution in PBS (5 mg/mL) were added to each well to obtain a final MTT concentration of 0.5 mg/mL, and then the cells were incubated for 4 h (37 °C temperature, 5% CO2, 90–95% humidity). After the incubation period, the contents of each well were removed, 1 mL of DMSO was added to dissolve the formazan, and then the plate with the added DMSO was mixed for 5–10 min on a microplate shaker (Boeco, Hamburg, Germany). Then, 10 µL of Sorensen’s glycine buffer (a solution of 0.1 M glycine and 0.1 M sodium chloride adjusted to pH 10.5 with 0.1 M sodium hydroxide) was added. The absorbance of the obtained solution was immediately measured at a wavelength of λ = 570 nm using a Thermo Scientific Evolution 201 UV–VIS spectrophotometer (Thermo Fisher Scientific, Waltham, MA, USA). The absorbance result obtained in the control cells (without the addition of the tested compounds) was taken as 100%, while the viability of cells incubated with the tested compounds was presented as a percentage of the control value.

[2] = test system: MCF-10A normal human breast epithelial cells; assay: MTT cytotoxicity test, MCF-10A; type: cell-based; conditions: 24 h incubation, read-out: IC50, cell viability (MTT)
Experimental: as §1

caspase 8 = assay: Caspase 8 activity (FAM-FLICA, flow cytometry), MDA-MB-231; type: cell-based, human; conditions: 24 h
Experimental: The FAM-FLICA® Caspase Assay kits (all from ImmunoChemistry Technologies, Bloomington, MN, USA) and flow cytometer (BD FACSCanto II, BD Biosciences Systems, San Jose, CA, USA) were used to evaluate the activity of caspase 3/7, 8, and 9. MCF-7 and MDA-MB-231 cells were treated with selenoesters under the study (EDAG-1 and EDAG-8) and a reference agent (cisplatin) at two different concentrations (0.5 and 1 µM; treatment duration: 24 h). Following this, cells were collected, washed twice with cold PBS, and resuspended in an Apoptosis Wash Buffer to a final concentration of 5 × 10^5 cells/mL. In the next step, 290 µL each of cell suspension was taken and transferred into tubes. Then 10 µL of FLICA solution diluted immediately before use (1:5 v/v, using PBS) was added to the cells, mixed by pipetting, and incubated in the dark for 1 h at 37 °C. After this time, the cells were washed twice with 2 mL Apoptosis Wash Buffer, centrifuged, and resuspended in 300 µL of the buffer. Thus, prepared samples were immediately analyzed using a BD FACSCanto II flow cytometer (10,000 events) with the FACSDiva 6.0 software (both from BD Biosciences Systems, San Jose, CA, USA). The equipment calibration was carried out using the BD Cytometer Setup and Tracking Beads (BD Biosciences, San Diego, CA, USA).

[3] = test system: MDA-MB-231 breast cancer cells; assay: Mitochondrial membrane potential (JC-1, flow cytometry), MDA-MB-231; type: cell-based, human; conditions: 24 h
Experimental: The entire cell staining and cytometric analysis procedures were performed according to the instructions provided with the kit. In the first step, the cells (1 × 10^6 cells/sample) were washed and resuspended in 0.5 mL of buffer containing 10 µg/mL JC-1 dye. Incubation was carried out for 15 min at room temperature, protected from light. Afterward, the cells were washed twice with buffer, resuspended in 0.5 mL PBS, and immediately analyzed using a flow cytometer (BD FACSCanto II; 10,000 events measured) and the FACSDiva 6.0 software (BD Biosciences Systems, San Jose, CA, USA) to count the percentage of cells with reduced ΔΨm. The equipment was calibrated with the BD Cytometer Setup and Tracking Beads (BD Biosciences, San Diego, CA, USA).

LC3A/B = LC3A/B protein level by flow cytometry, MDA-MB-231; type: cell-based, human; conditions: 24 h
Experimental: For this purpose, Akt (PE), Bax (FITC), Bcl-2 (Alexa Fluor® 647), LC3A/B (Alexa Fluor® 488), and p53 (Alexa Fluor® 488) antibodies conjugated to different fluorochromes (all from Cell Signaling Technology, Beverly, MA, USA) were utilized. Each assay was performed according to the manufacturer's protocol available on their website. After incubation with the tested compounds, the cells were centrifuged, resuspended in 4% formaldehyde (100 μL/1 × 10^6 cells), and fixed for 15 min at room temperature. Afterward, to remove the formaldehyde, the cells were washed by centrifugation with excess PBS and the permeabilization step was triggered. For this purpose, ice-cold 90% methanol was added to the pre-chilled cell pellet, gently vortexed, and incubated for 1 h on ice. Later, the cells were washed by centrifugation with excess PBS again, resuspended in 100 μL of 1:100 diluted primary antibody (stain buffer was used for dilution), and incubated for 1 h at room temperature in the dark. After incubation, the cells were washed, resuspended in 300 μL PBS, and immediately tested with a flow cytometer (BD FACSCanto II, BD Biosciences Systems, San Jose, CA, USA; 10,000 events measured). The obtained results were analyzed using the FACSDiva 6.0 software (BD Biosciences Systems, San Jose, CA, USA). In the case of the p53 protein, the MRF values were obtained first during the flow cytometer readout utilizing FACSDiva software and later analyzed using FCS Express 7 (De Novo Software, Pasadena, CA, USA). The equipment calibration was performed using the BD Cytometer Setup and Tracking Beads (BD Biosciences, San Diego, CA, USA).

N.N.[Cl][Pt][Cl] [Cisplatin, reference compound]
IC50 [1]: > 5000 nM | IC50 [2]: > 5000 nM | Active caspase 8 ± SD (cells) (caspase 8; MDA-MB-231, 0.5 μM): 7.3 ± 0.7% | Active caspase 8 ± SD (cells) (caspase 8; MDA-MB-231, 1 μM): 8.0 ± 1.6% | Decreased ΔΨm ± SD (cells) ([3]; MDA-MB-231, 0.5 μM): 11.2 ± 0.9% | Decreased ΔΨm ± SD (cells) ([3]; MDA-MB-231, 1 μM): 12.9 ± 0.2% | LC3A/B positive cells ± SD (LC3A/B; MDA-MB-231, 0.5 μM): 2.4 ± 0.5% | LC3A/B positive cells ± SD (LC3A/B; MDA-MB-231, 1 μM): 3.2 ± 0.3%

CC(=O)C[Se]C(=O)c1ccc(C(=O)[Se]CC(C)=O)cc1 [EDAG-1, Se,Se-bis(2-oxopropyl) benzene-1,4-bis(carboselenoate)]
IC50 ([1]; Homo sapiens, MCF7): 470 ± 60 nM | IC50 ([2]; Homo sapiens): 410 ± 30 nM | Active caspase 8 ± SD (cells) (caspase 8; MDA-MB-231, 0.5 μM): 11.5 ± 0.9% | Active caspase 8 ± SD (cells) (caspase 8; MDA-MB-231, 1 μM): 14.4 ± 1.2% | Decreased ΔΨm ± SD (cells) ([3]; MDA-MB-231, 0.5 μM): 29.2 ± 2.2% | Decreased ΔΨm ± SD (cells) ([3]; MDA-MB-231, 1 μM): 72.1 ± 0.9% | LC3A/B positive cells ± SD (LC3A/B; MDA-MB-231, 0.5 μM): 10.5 ± 1.4% | LC3A/B positive cells ± SD (LC3A/B; MDA-MB-231, 1 μM): 15.4 ± 1.3%

CC(=O)C[Se]C(=O)c1cc(C(=O)[Se]CC(C)=O)cc(C(=O)[Se]CC(C)=O)c1 [EDAG-8, Se,Se,Se-tris-(2-oxopropyl) benzene-1,3,5-tris-(carboxyselenoate)]
IC50 ([1]; Homo sapiens, MCF7): 610 ± 50 nM | IC50 ([2]; Homo sapiens): 510 ± 20 nM | Active caspase 8 ± SD (cells) (caspase 8; MDA-MB-231, 0.5 μM): 15.0 ± 2.0% | Active caspase 8 ± SD (cells) (caspase 8; MDA-MB-231, 1 μM): 26.6 ± 3.6% | Decreased ΔΨm ± SD (cells) ([3]; MDA-MB-231, 0.5 μM): 55.0 ± 3.0% | Decreased ΔΨm ± SD (cells) ([3]; MDA-MB-231, 1 μM): 92.5 ± 0.7% | LC3A/B positive cells ± SD (LC3A/B; MDA-MB-231, 0.5 μM): 14.8 ± 0.5% | LC3A/B positive cells ± SD (LC3A/B; MDA-MB-231, 1 μM): 17.0 ± 1.6%
